# Test results reported in ChEMBL document CHEMBL1150909, “Magnone A and B, novel anti-PAF tetrahydrofuran lignans from the flower buds of Magnolia fargesii” (J Nat Prod, 1998).
# How the values were obtained:
# [1] = Displacement of [3H]PAF from rabbit PAF receptor by liquid scintillation counting; parameters: species or system Oryctolagus cuniculus
# Oryctolagus cuniculus [2] = species on record: Oryctolagus cuniculus; test: Displacement of [3H]PAF from rabbit PAF receptor at 25 uM by liquid scintillation counting
# Oryctolagus cuniculus [3] = species on record: Oryctolagus cuniculus; test: Displacement of [3H]PAF from rabbit PAF receptor at 12.5 uM by liquid scintillation counting
# Oryctolagus cuniculus [4] = species on record: Oryctolagus cuniculus; test: Displacement of [3H]PAF from rabbit PAF receptor at 100 uM by liquid scintillation counting
# Oryctolagus cuniculus [5] = species on record: Oryctolagus cuniculus; test: Displacement of [3H]PAF from rabbit PAF receptor at 50 uM by liquid scintillation counting
IC50 [1] [µM],Activity (Oryctolagus cuniculus [2]) [%],Activity (Oryctolagus cuniculus [3]) [%],Activity (Oryctolagus cuniculus [4]) [%],Activity (Oryctolagus cuniculus [5]) [%],SMILES
19,,,,,C[C@@H]1C(=O)O[C@H]2[C@H](O)[C@@]34[C@H]5C[C@@H](C(C)(C)C)[C@]36[C@@H](OC(=O)[C@@H]6O)O[C@@]4(C(=O)O5)[C@@]12O [GINKOLIDE B]
38,41.6,19.4,75.2,56.7,COc1ccc(C(=O)[C@H]2CO[C@H](c3ccc(OC)c(OC)c3)[C@H]2CO)cc1OC [MAGNONE A]
27,42.9,37.1,81.7,64.3,COc1ccc(C(=O)[C@H]2CO[C@H](c3cc(OC)c(OC)c(OC)c3)[C@H]2CO)cc1OC [MAGNONE B]
